Source: ChEMBL document CHEMBL1147006, “Synthesis, characterization and antiamoebic activity of 1-(thiazolo[4,5-b]quinoxaline-2-yl)-3-phenyl-2-pyrazoline derivatives” (Bioorg Med Chem Lett, 2006)

Tested on: Entamoeba histolytica
Test: Antiamoebic activity against Entamoeba histolytica HM-1:IMSS
Assay type: functional, organism-based

| Compound | IC50 [µM] |
| --- | --- |
| CC1CN(c2nc3nc4ccccc4nc3s2)N=C1c1cccc(Br)c1 (stereo unspecified) | 1.45 |
| Clc1cccc(C2=NN(c3nc4nc5ccccc5nc4s3)CC2)c1 | 1.09 |
| CC1CN(c2nc3nc4ccccc4nc3s2)N=C1c1ccccc1 (stereo unspecified) | 2.34 |
| CC1CN(c2nc3nc4ccccc4nc3s2)N=C1c1cccc(Cl)c1 (stereo unspecified) | 0.72 |
| NC(=S)N1CCC(c2ccccc2)=N1 | 17.2 |
| c1ccc(C2=NN(c3nc4nc5ccccc5nc4s3)CC2)cc1 | 6.76 |
| Brc1cccc(C2=NN(c3nc4nc5ccccc5nc4s3)CC2)c1 | 4.98 |
| NC(=S)N1CCC(c2cccc(Br)c2)=N1 | 13.2 |
| CC1CN(C(N)=S)N=C1c1ccccc1 (stereo unspecified) | 10.2 |
| NC(=S)N1CCC(c2cccc(Cl)c2)=N1 | 8.7 |
| Cc1ncc([N+](=O)[O-])n1CCO [METRONIDAZOLE] | 1.69 |
